Experimental data from publication PMC9962600, “Structure-Function Studies of Sponge-Derived Compounds on the Cardiac CaV3.1 Channel” (International Journal of Molecular Sciences, 2023).
“And” between values parts separate entries of the source, which are not always exact repeats. Equal entries are not always repeated.

Assays:
[1] = target: T1, rat CaV3.1 channel (Rattus norvegicus, UniProt O54898); assay: Two-electrode voltage clamp on Xenopus oocytes expressing CaV3.1; assay type: cell-based; details: for inhibition at 10 µM / Shift in the voltage dependency (activation/inactivation) of CaV3.1: 10 μM compound; for inhibition at 10 µM: 10 mM Ba2+, means ± SEM (n ≥ 3), read-out: Inhibition of CaV3.1 currents; for IC50: concentration-response 0.1-100 μM, means ± SEM; for Hill coefficient on CaV3.1: concentration-response fit; for Reversibility of effect on CaV3.1 on wash-out: wash-in and wash-out
Experimental: In previous work, a library of 119 simplified analogs was synthesized with the aim of targeting KV10.1 [18, 23, 24, 25]. Due to the interesting activity of purpurealidin I (1), we decided to repurpose this existing library to investigate the structure–activity relationship with respect to the CaV3.1 channels. All compounds were first dissolved in DMSO and then diluted in a 10 mM Ba^2+ solution. Compounds were tested at a final concentration of 10 μM.
(§1) Rat CaV3.1, human CaV3.2, rat CaV3.3, human NaV1.5, rat KV1.4, rat KV4.2, and human KV11.1 were expressed in X. laevis oocytes by linearizing the plasmids and subsequent in vitro transcription using a commercial T7 mMESSAGE mMACHINE transcription kit (Ambion, Carlsbad, CA, USA). Defolliculated Xenopus oocytes were injected with 50 nL of cRNA at a concentration of 1 ng/nL by using a microinjector (Drummond Scientific Company, Broomall, PA, USA). The oocytes were incubated in a solution containing (in mM): NaCl, 96; KCl, 2; CaCl2, 1.8; MgCl2, 2; and HEPES, 5 (pH 7.5). This solution was supplemented with 50 mg/L gentamicin sulfate and […] theophylline.
(§2) Two-electrode voltage clamp recordings were performed at room temperature (18–22 °C) by using a GeneClamp 500 amplifier (Molecular Devices, San Jose, CA, USA) controlled by a pClamp data acquisition system (Axon Instruments, Union City, CA, USA). Whole-cell currents from oocytes were recorded 5–10 days after mRNA injection. The bath solution composition was the following (in mM): BaCl2, 10; NaOH, 90; KOH, 1; EDTA, 0.1; and HEPES, 5 (pH 7.5). Voltage and current electrodes were filled with 3 M KCl. Resistances of both electrodes were kept between 0.8 and 1.5 MΩ. The elicited CaV3.1, CaV3.2, and CaV3.3 currents were filtered at 2 kHz and sampled at 4 kHz using a four-pole low-pass Bessel filter. Leak subtraction was performed by using a -P/4 protocol. Oocytes were placed in a measuring chamber filled with 200 μL ND96. The compounds were added directly to the measuring chamber under continuous application of the described voltage protocol. The percentage channel modulation was calculated when steady-state conditions were reached.
(§3) For the electrophysiological analysis of peptides, a number of protocols were applied from a holding potential of −90 mV. Currents for CaV3.1 and CaV3.2, which were carried by Ba^2+, were evoked by 300 ms depolarizing pulses to −25 mV or Vmax (the voltage corresponding to maximal Ba^2+ current in control conditions). Currents for CaV3.3, which were carried by Ba^2+, were evoked by 1 s depolarizing pulses to −25 mV or Vmax. The current–voltage relationships were determined by 600 ms step depolarizations between −90 and +60 mV, using 10 mV increments. The values of IPBa were normalized to the maximal Ba^2+ current amplitude and plotted as a function of voltage. To investigate the effect of the peptide toxins on the activation and steady-state inactivation, a standard 2-step protocol was used. In this protocol, 600 ms conditioning 10 mV step prepulses, ranging from −90 to +60 mV, were followed by a 400 ms test pulse to −25 mV. Data were normalized to the maximal Ba^2+ current amplitude, plotted against prepulse potential, and fitted by using the Boltzmann function: ICa/Imax = {(1 − C)/(1 + exp[(V − Vh)/k)]} + C, where Imax is the maximal IBa, Vh is the voltage corresponding to half-maximal inactivation, V is the test voltage, k is the slope factor, and C is a constant representing a non-inactivating persistent fraction (close to 0 in control). The concentration–response relationship was determined by fitting the data with the Hill equation: y = 100/{1 + [IC50/(toxin)]^h}, where y is the amplitude of the toxin-induced effect, IC50 is the toxin concentration at half-maximal efficacy, toxin is the toxin concentration, and h is the Hill coefficient.

[2] = target: human CaV3.2 (Homo sapiens, UniProt O95180); assay: Two-electrode voltage clamp on Xenopus oocytes expressing CaV3.2; assay type: cell-based; details: for Hill coefficient on CaV3.2: concentration-response fit; for IC50: concentration-response, means ± SEM; for Shift in the voltage dependency (activation/inactivation) of CaV3.2: 10 μM compound; for Reversibility of effect on CaV3.2 on wash-out: wash-in and wash-out
Chain of human CaV3.2 (O95180 whole entry): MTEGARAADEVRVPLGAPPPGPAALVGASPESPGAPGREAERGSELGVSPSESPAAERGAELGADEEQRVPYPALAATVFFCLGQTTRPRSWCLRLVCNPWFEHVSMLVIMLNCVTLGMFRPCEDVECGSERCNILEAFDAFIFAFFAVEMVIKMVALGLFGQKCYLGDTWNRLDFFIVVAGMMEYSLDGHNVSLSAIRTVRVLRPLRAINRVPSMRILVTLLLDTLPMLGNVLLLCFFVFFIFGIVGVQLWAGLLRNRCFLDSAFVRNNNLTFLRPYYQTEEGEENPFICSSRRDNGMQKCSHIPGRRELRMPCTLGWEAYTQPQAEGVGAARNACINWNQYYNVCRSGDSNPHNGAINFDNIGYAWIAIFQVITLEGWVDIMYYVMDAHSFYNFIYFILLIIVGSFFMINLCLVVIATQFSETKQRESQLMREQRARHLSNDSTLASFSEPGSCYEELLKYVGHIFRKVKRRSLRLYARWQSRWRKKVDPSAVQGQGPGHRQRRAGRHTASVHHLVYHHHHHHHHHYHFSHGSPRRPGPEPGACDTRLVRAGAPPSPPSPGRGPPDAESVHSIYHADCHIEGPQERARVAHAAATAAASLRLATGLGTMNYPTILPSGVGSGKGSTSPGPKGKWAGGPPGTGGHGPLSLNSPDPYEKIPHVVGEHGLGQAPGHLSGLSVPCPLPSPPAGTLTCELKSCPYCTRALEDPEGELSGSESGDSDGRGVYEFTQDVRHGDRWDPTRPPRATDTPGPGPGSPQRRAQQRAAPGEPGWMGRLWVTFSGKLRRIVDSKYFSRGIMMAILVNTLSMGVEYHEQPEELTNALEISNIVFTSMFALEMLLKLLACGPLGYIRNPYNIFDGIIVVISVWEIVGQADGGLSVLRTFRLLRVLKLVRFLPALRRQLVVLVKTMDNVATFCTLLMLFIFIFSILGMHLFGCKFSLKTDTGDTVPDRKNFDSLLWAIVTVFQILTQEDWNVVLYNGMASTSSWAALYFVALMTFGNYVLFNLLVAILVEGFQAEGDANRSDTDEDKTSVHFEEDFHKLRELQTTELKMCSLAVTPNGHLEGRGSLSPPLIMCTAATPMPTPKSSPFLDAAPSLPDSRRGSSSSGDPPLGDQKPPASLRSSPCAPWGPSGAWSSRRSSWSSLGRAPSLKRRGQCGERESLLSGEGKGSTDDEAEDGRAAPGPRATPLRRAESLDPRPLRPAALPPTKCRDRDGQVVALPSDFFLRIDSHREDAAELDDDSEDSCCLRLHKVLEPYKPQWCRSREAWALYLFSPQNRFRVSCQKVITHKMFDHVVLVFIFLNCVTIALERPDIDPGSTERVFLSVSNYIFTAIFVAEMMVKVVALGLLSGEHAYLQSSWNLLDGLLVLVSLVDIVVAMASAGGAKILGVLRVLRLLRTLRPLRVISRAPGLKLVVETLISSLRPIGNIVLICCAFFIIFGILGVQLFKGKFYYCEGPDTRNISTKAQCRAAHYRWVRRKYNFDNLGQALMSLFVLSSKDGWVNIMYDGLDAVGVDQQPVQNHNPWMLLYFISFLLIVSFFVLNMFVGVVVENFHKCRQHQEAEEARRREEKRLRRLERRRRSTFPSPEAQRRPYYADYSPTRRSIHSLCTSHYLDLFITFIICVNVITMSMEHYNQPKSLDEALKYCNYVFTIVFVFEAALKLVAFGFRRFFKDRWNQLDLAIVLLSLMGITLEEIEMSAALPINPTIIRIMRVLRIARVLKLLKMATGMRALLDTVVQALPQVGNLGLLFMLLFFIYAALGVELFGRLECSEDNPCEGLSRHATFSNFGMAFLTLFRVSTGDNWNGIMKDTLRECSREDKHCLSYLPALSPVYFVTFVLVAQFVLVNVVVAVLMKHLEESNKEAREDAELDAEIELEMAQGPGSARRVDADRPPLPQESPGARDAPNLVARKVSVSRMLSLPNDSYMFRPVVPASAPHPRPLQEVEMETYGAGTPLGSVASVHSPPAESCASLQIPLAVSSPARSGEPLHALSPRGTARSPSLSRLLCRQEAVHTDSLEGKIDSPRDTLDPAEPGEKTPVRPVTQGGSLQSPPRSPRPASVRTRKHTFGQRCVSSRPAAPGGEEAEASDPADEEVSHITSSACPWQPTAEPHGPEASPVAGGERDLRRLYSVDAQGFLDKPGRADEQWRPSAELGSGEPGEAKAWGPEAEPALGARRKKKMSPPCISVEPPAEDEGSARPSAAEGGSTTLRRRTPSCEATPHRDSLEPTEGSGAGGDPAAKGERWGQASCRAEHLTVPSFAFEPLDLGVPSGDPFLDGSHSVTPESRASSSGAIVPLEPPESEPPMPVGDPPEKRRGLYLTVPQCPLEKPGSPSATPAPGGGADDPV
Experimental: as §1, §2, §3

[3] = target: T1, rat CaV3.1 channel; assay: Two-electrode voltage clamp on Xenopus oocytes expressing CaV3.1; assay type: cell-based
[4] = target: human KV11.1 (Homo sapiens, UniProt Q12809); assay: Selectivity screening, KV11.1 (hERG) in Xenopus oocytes; assay type: cell-based; details: comparison of own CaV3.1 and KV11.1 data
Chain of human KV11.1 (Q12809 whole entry): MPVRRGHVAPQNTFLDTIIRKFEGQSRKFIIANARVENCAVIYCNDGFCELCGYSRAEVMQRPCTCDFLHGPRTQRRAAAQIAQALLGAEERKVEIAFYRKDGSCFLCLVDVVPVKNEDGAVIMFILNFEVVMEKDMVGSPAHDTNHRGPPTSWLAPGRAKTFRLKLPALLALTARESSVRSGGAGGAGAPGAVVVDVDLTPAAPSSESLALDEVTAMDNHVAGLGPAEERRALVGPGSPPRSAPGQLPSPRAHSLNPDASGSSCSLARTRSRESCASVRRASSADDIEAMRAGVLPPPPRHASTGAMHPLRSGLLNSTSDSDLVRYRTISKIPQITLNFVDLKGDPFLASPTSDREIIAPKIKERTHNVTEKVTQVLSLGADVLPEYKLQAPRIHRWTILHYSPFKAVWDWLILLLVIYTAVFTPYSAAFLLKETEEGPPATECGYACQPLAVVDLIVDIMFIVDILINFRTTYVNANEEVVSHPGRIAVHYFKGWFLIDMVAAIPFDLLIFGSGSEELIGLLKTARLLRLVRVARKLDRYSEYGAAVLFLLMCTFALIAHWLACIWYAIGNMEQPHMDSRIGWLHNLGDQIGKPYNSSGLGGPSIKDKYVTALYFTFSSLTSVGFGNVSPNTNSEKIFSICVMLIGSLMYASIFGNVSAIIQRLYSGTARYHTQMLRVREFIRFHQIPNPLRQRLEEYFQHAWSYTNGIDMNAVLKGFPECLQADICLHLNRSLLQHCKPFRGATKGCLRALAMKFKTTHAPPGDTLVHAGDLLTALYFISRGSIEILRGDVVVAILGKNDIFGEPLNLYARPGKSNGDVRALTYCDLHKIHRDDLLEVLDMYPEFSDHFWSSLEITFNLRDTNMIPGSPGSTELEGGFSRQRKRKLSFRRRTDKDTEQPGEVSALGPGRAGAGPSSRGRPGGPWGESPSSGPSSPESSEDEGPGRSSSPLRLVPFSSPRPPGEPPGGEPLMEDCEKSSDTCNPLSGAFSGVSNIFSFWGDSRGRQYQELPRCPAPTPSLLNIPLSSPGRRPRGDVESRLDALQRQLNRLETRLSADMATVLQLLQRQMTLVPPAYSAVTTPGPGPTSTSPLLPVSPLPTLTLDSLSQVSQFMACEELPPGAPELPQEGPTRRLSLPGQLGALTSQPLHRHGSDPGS
Experimental: (§4) As these purpurealidin analogs represent a new class of potent CaV3.1 inhibitors, they could potentially be used as pharmacological tools to investigate the role of CaV3 channels in various disease models. Therefore, compounds 74, 76, 79, and 99 were further evaluated at a concentration of 10 μM for their selectivity against cardiac voltage-gated potassium and sodium channels. […] Nevertheless, the affinity for the KV11.1 channel is an important issue for all four compounds (Table 2).
as §1
(§5) The selectivity screening was conducted with the following protocols: the elicited KV1.4, KV4.2, and KV11.1 currents were filtered at 0.5 kHz and sampled at 2 kHz; NaV1.5 currents were filtered at 2 kHz and sampled at 20 kHz using a four-pole low-pass Bessel filter. Leak subtraction was performed using a -P/4 protocol. The oocytes were measured in a bath solution composition of ND96 (in mM): NaCl, 96; KCl, 2; CaCl2, 1.8; MgCl2, 2; and HEPES, 5 (pH 7.5). For the electrophysiological analysis of the compounds, a number of protocols were applied from a holding potential of −90 mV. Currents for KV1.4 and KV4.2 were evoked by 0.5 s depolarizing pulses to 0 mV, followed by 0.5 s repolarizing pulses to −50 mV. Currents for KV11.1 were evoked by 2.5 s depolarizing prepulses to +40 mV, followed by hyperpolarizing pulses to −120 mV for 2.5 s. Currents for NaV1.5 were evoked by 100 ms depolarizing pulses to 0 mV.

[5] = target: KV11.1 (hERG) (Homo sapiens, UniProt Q12809); assay: as above; assay type: cell-based; details: human, Xenopus laevis oocytes expressing human KV11.1 (hERG), pH 7.5; 10 μM; means ± SEM (n ≥ 3); read-out: Percentage of inhibition of KV11.1
Chain of KV11.1 (hERG) (Q12809 whole entry): as above
Experimental: as §4, §1, §5

[6] = target: rat CaV3.3 (Rattus norvegicus, UniProt Q9Z0Y8); assay: Two-electrode voltage clamp on Xenopus oocytes expressing CaV3.3; assay type: cell-based; details: for Shift in the voltage dependency (activation/inactivation) of CaV3.3: 10 μM compound; for Hill coefficient on CaV3.3: concentration-response fit; for IC50: concentration-response, means ± SEM; for Reversibility of effect on CaV3.3 on wash-out: wash-in and wash-out
Experimental: as §1, §2, §3

[7] = test system: hERG channels; details: reference not given; cited from earlier work

Compound: CN(C)CC(O)COc1ccc(Oc2ccc(C(F)(F)F)cc2[N+](=O)[O-])cc1 (stereo not shown) [Compound 99]
- inhibition at 10 µM [1]: 90.7 ± 5.4%
- IC50 [1]: ~3 µM and 4.1 µM
- Hill coefficient on CaV3.1 [1]: 1.6 ± 0.1
- Hill coefficient on CaV3.2 [2]: 1.4 ± 0.3
- IC50 [2]: 2.3 ± 0.5 µM
- Shift in the voltage dependency (activation/inactivation) of CaV3.1 ([3]; 5 μM compound): no significant shift
- inhibition at 5 µM ([3]; 5 μM compound, read-out: Inhibition of CaV3.1 currents): 57 ± 5.8%
- Reversibility of effect on CaV3.1 on wash-out ([3]; 5 μM compound, wash-out with compound-free bath solution): not completely reversible
- Midpoint of activation V1/2 ([3]; in the presence of 5 μM compound, control −39.9 ± 0.1 mV): −37.4 ± 0.1 mV
- Inactivation curve V1/2 ([3]; in the presence of 5 μM compound, control −56.0 ± 0.1 mV): −53.0 ± 0.2 mV
- Potency across CaV3.1 and hERG channels [4]: equipotent
- inhibition at 10 µM [5]: 69.1 ± 1.9%

Compound: CNCCCOc1c(Br)cc(CCNC(=O)/C(Cc2cc(Br)c(OC)c(Br)c2)=N/O)cc1Br [Compound 1, purpurealidin I]
- inhibition at 10 µM [1]: 70.5 ± 0.6%

Compound: CN(C)CCCOc1ccc(Nc2ccc(C(F)(F)F)cc2[N+](=O)[O-])cc1 [Compound 74]
- Shift in the voltage dependency (activation/inactivation) of CaV3.3 [6]: No significant shift
- Hill coefficient on CaV3.3 [6]: 0.5 ± 0.1
- IC50 [6]: 13.9 ± 5.1 µM
- Reversibility of effect on CaV3.3 on wash-out [6]: reversible
- Shift in the voltage dependency (activation/inactivation) of CaV3.1 [1]: No significant shift
- inhibition at 10 µM [1]: 43.4 ± 2.4%
- IC50 [1]: 2.6 ± 0.6 µM
- Hill coefficient on CaV3.1 [1]: 0.8 ± 0.1
- Reversibility of effect on CaV3.1 on wash-out [1]: reversible
- Shift in the voltage dependency (activation/inactivation) of CaV3.2 [2]: No significant shift
- Hill coefficient on CaV3.2 [2]: 0.8 ± 0.0
- IC50 [2]: 3 ± 0.2 µM
- Reversibility of effect on CaV3.2 on wash-out [2]: reversible
- inhibition at 10 µM [5]: 45.8 ± 2.9%

Compound: CC(C)(C)NC(=O)CN1CCC(CNC(=O)c2cc(F)cc(Cl)c2)CC1 [Compound Z944]
- IC50 [7]: 7.8 µM
- Potency against CaV3.1 compared to hERG channels [7]: 150 fold

Compound: CN(C)CC(O)COc1ccc(Nc2ccc(C(F)(F)F)cc2)cc1 (stereo not shown) [Compound 79]
- Shift in the voltage dependency (activation/inactivation) of CaV3.3 [6]: No significant shift
- Hill coefficient on CaV3.3 [6]: 0.7 ± 0.1
- IC50 [6]: 2.7 ± 0.3 µM
- Reversibility of effect on CaV3.3 on wash-out [6]: reversible
- Shift in the voltage dependency (activation/inactivation) of CaV3.1 [1]: No significant shift
- inhibition at 10 µM [1]: 60.4 ± 5.7%
- IC50 [1]: 5.9 ± 1.9 µM
- Hill coefficient on CaV3.1 [1]: 0.8 ± 0.1
- Reversibility of effect on CaV3.1 on wash-out [1]: reversible
- Shift in the voltage dependency (activation/inactivation) of CaV3.2 [2]: No significant shift
- Hill coefficient on CaV3.2 [2]: 1.0 ± 0.0
- IC50 [2]: 7 ± 0.1 µM
- Reversibility of effect on CaV3.2 on wash-out [2]: reversible
- inhibition at 10 µM [5]: 67.6 ± 3.9%

Compound: O=C(NCc1cccnc1)C1=NOC2(C=C(Cl)C(=O)C(Cl)=C2)C1 [Compound 72]
- inhibition at 10 µM [1]: 3.1 ± 1.1%

Compound: CN(C)CC(O)COc1ccc(Nc2ccc(C(F)(F)F)cc2[N+](=O)[O-])cc1 (stereo not shown) [Compound 76]
- Shift in the voltage dependency (activation/inactivation) of CaV3.3 [6]: No significant shift
- Hill coefficient on CaV3.3 [6]: 0.7 ± 0.1
- IC50 [6]: 18.2 ± 3.1 µM
- Reversibility of effect on CaV3.3 on wash-out [6]: reversible
- Shift in the voltage dependency (activation/inactivation) of CaV3.1 [1]: No significant shift
- inhibition at 10 µM [1]: 43 ± 4.5%
- IC50 [1]: 3.7 ± 0.6 µM
- Hill coefficient on CaV3.1 [1]: 0.9 ± 0.1
- Reversibility of effect on CaV3.1 on wash-out [1]: reversible
- Shift in the voltage dependency (activation/inactivation) of CaV3.2 [2]: No significant shift
- Hill coefficient on CaV3.2 [2]: 0.8 ± 0.1
- IC50 [2]: 8.4 ± 3.6 µM
- Reversibility of effect on CaV3.2 on wash-out [2]: reversible
- inhibition at 10 µM [5]: 64.2 ± 3.2%
